Test results reported in US20240199676A1, “ANTIVIRAL COMPOUNDS AND METHODS OF MAKING AND USING THE SAME” (Gilead Sciences, Inc., priority 2022, published 2024).

Legend:
[1] = GI S9 stability (Ex. Z), rat intestinal S9; assay type: in vitro ADME; settings: pooled intestinal S9 fractions; rat intestinal S9, 1.0 mg/mL protein, 2 μM substrate, pH 7.4; read-out: GIS9 Rat T½ (per Ex. Z)
Procedure: Example Z: GI S9 stability data:
Stock solutions of test compounds in dimethyl sulfoxide (DMSO) having a final concentration of 10 mM were prepared and used in all experiments. Sekisui XenoTech (Kansas City, KS) provided pooled intestinal S9 fractions. All other chemicals were purchased from Sigma-Aldrich (St. Louis, MO) or VWR (West Chester, PA). Internal Standard/Quench (IS/Q) used to stop reactions was 100 nM labetalol in (by volume) methanol (10%) and acetonitrile (90%).
Stability in Intestinal S9 Fractions: Duplicate aliquots of test compound or positive control substrate were added to S9 stock diluted with phosphate buffered saline (137 mM NaCl, 2.7 mM KCl, 10 mM phosphate buffer), pH 7.4, to obtain a protein concentration of 1.0 mg/mL. The metabolic reactions were initiated by the addition of the substrates to the S9 reaction mixture to a final concentration of 2 μM. At 0, 10, 20, 30, 60 and 120 min, 25 μL aliquots of the reaction mixture were transferred to plates containing 225 μl of IS/Q solution. After quenching, the plates were centrifuged at 3000×g for 30 minutes. 150 μL aliquots of each supernatant were dried down then reconstituted with 300 μL water. Aliquots (10 μL) of the prepared samples were analyzed on a Thermo Q-Exactive mass spectrometer as described below.
Liquid Chromatography—Mass Spectrometry: Quantification of test compounds and control substrate was performed by analyte/internal standard peak area ratio (PAR) values measured on a Thermo Q-Exactive mass spectrometer coupled to a Dionex UltiMate 3000 HPLC with a Leap Technologies HTC PAL autosampler. The column used for analysis was a Waters Acquity BEH C18 (1.7 μm particle size, 2.1×50 mm). Mobile phase A consisted of 0.1% (v/v) formic acid in water. Mobile phase B consisted of 0.1% (v/v) formic acid in acetonitrile. Elution of analytes was achieved by a series of linear gradients varying the proportions of A and B. The mass spectrometer was calibrated on a weekly basis and mass tolerance of 5 ppm was used.
Metabolic stabilities in S9 fractions were determined by measuring the rates of disappearance of test compound and positive control substrate.
Data (% of substrate remaining) were plotted on a semi-log scale and fitted using an exponential decline model:
Where Ct—% of substrate remaining at time=t; C0—% of substrate remaining at time=0; t—time; T½—half-life The Half-life (T½) is determined by the following equation: […]
Assuming a first-order reaction, the slope (k) is extrapolated from the aforementioned plotted data.

[2] = test system: Human Rhinovirus 14 (HRV14) in H1-HeLa cells; assay: H1-HeLa HRV-CTG 384-well Assay (Ex. Y), HRV14; assay type: cell-based; settings: Rhinovirus B, 96 h; H1-HeLa cells, HRV14 MOI 1.0, 4 days, Celltiter-Glo; read-out: EC50 H1-HeLa_HRV14_HRV-CTG 384-well Assay (per Ex Y)
Source text: Example Y: H1-HeLa HRV-CTG 384-well Assay
H1-Hela cell line (ATCC, Manassas, VA, Cat #CRL-1958) was maintained in Dulbecco's […] (DMEM) (Corning, New York, NY, Cat #15-018CM) supplemented with 10% fetal bovine serum (FBS) (Hyclone, Logan, UT, Cat #SH30071-03), and 1× Penicillin-Streptomycin-L-Glutamine (Corning, New York, NY, Cat #30-009-CI). Cells were passaged 2 times per week to maintain sub-confluent densities and were used for experiments at passage 5-30. The Human Rhinovirus 1B (HRV1B) (ATCC, Manassas, VA, Cat #VR-1645) , Human Rhinovirus 14 (HRV14) (ATCC, Manassas, VA, Cat #VR-284), and Human Rhinovirus 16 (HRV16) (ATCC, Manassas, VA, Cat #BR-283) was obtained through ATCC. Viral infection was monitored by determining viability of H1-HeLa cells as described below.
Test molecules are prepared in 100% DMSO in 384-well polypropylene plates (Greiner, Monroe, NC, Cat #784201) with 8 compounds per plate in grouped replicates of 4 at 10 serially diluted concentrations (1:3). The serially diluted compounds were transferred to low dead volume Echo plates (Labcyte, Sunnyvale, CA, Cat #LP-0200).
The test compounds were spotted to 384-well assay plates (Greiner, Monroe, NC, Cat#781091) at 200 nL per well using an Echo acoustic dispenser (Labcyte, Sunnyvale, CA). H1-HeLa cells were harvested and suspended in DMEM (supplemented with 2% FBS and 1× Penicillin-Streptomycin-L-Glutamine) and seeded to the pre-spotted assay plates at 5,000 cells per well in 30 μL. HRV1B, HRV14, and HRV16 was diluted in DMEM (supplemented with 2% FBS and 1× Penicillin-Streptomycin-L-Glutamine) at 97.1 million Infectious Units (IU) per mL, 151 million IU per mL and 221 million IU per mL respectively. 10 μL of virus per well was added to the assay plates containing cells and compounds, for an MOI of 0.5, 1.0, and 0.25 respectively. The assay plates were incubated for 4 days at 37° C. and 5% CO2. At the end of incubation, Celltiter-Glo (Promega, Madison, WI, Cat #(Ga7573) was prepared. The assay plates and Celltiter-Glo reagent were equilibrated to room temperature for at least 15 minutes. 40 μL per well of Celltiter-Glo reagent was added and the plates were incubated at room temperature for 15 minutes before reading the luminescence signal on an EnVision multimode plate reader (Perkin Elmer, Waltham, MA). Rupintrivir was used as positive control and DMSO was used as negative control. Values were normalized to the positive and negative controls (as 0% and 100% replication, respectively) and data was fitted using non-linear regression analysis by Gilead's dose response tool. The EC50 value for each compound was defined as the concentration reducing viral replication by 50%.

Structure (SMILES) | half-life at 2 μM [1] | EC50 [2]
CC(C)C(=O)OC[C@@]1(C#N)O[C@@H](c2ccc3c(N)ncnn23)[C@H](O)[C@@H]1O [Compound 1, ((2R,3S,4R,5S)-5-(4-aminopyrrolo[2,1-f][1,2,4]triazin-7-yl)-2-cyano-3,4-dihydroxytetrahydrofuran-2-yl)methyl isobutyrate] | 11 min | 5.13 µM
N#C[C@]1(COC(=O)c2ccccc2)O[C@@H](c2ccc3c(N)ncnn23)[C@H](O)[C@@H]1O [Compound 2, ((2R,3S,4R,5S)-5-(4-aminopyrrolo[2,1-f][1,2,4]triazin-7-yl)-2-cyano-3,4-dihydroxytetrahydrofuran-2-yl)methyl benzoate] | 8 min | 23.9 µM
CC(C)CC(=O)OC[C@@]1(C#N)O[C@@H](c2ccc3c(N)ncnn23)[C@H](O)[C@@H]1O [Compound 3, ((2R,3S,4R,5S)-5-(4-aminopyrrolo[2,1-f][1,2,4]triazin-7-yl)-2-cyano-3,4-dihydroxytetrahydrofuran-2-yl)methyl 3-methylbutanoate] | 12 min | 9.33 µM
CC(=O)OC[C@@]1(C#N)O[C@@H](c2ccc3c(N)ncnn23)[C@H](O)[C@@H]1O [Compound 4, ((2R,3S,4R,5S)-5-(4-aminopyrrolo[2,1-f][1,2,4]triazin-7-yl)-2-cyano-3,4-dihydroxytetrahydrofuran-2-yl)methyl acetate] | 9 min | 4.61 µM
CCC(=O)OC[C@@]1(C#N)O[C@@H](c2ccc3c(N)ncnn23)[C@H](O)[C@@H]1O [Compound 5, ((2R,3S,4R,5S)-5-(4-aminopyrrolo[2,1-f][1,2,4]triazin-7-yl)-2-cyano-3,4-dihydroxytetrahydrofuran-2-yl)methyl propionate] | 10 min | 10.5 µM
CCCC(=O)OC[C@@]1(C#N)O[C@@H](c2ccc3c(N)ncnn23)[C@H](O)[C@@H]1O [Compound 6, ((2R,3S,4R,5S)-5-(4-aminopyrrolo[2,1-f][1,2,4]triazin-7-yl)-2-cyano-3,4-dihydroxytetrahydrofuran-2-yl)methyl butyrate] | 4 min | 7.86 µM
N#C[C@]1(COC(=O)C2CC2)O[C@@H](c2ccc3c(N)ncnn23)[C@H](O)[C@@H]1O [Compound 7, ((2R,3S,4R,5S)-5-(4-aminopyrrolo[2,1-f][1,2,4]triazin-7-yl)-2-cyano-3,4-dihydroxytetrahydrofuran-2-yl)methyl cyclopropanecarboxylate] | 26 min | 27.1 µM
N#C[C@]1(COC(=O)C2CCC2)O[C@@H](c2ccc3c(N)ncnn23)[C@H](O)[C@@H]1O [Compound 8, ((2R,3S,4R,5S)-5-(4-aminopyrrolo[2,1-f][1,2,4]triazin-7-yl)-2-cyano-3,4-dihydroxytetrahydrofuran-2-yl)methyl cyclobutanecarboxylate] | 2 min | 5.66 µM
CCC(CC)C(=O)OC[C@@]1(C#N)O[C@@H](c2ccc3c(N)ncnn23)[C@H](O)[C@@H]1O [Compound 9, ((2R,3S,4R,5S)-5-(4-aminopyrrolo[2,1-f][1,2,4]triazin-7-yl)-2-cyano-3,4-dihydroxytetrahydrofuran-2-yl)methyl 2-ethylbutanoate] | 23 min | 15.5 µM
CC(C)C(=O)O[C@H]1[C@H](c2ccc3c(N)ncnn23)O[C@](C#N)(COC(=O)c2ccccc2)[C@H]1O [Compound 22, ((2R,3S,4R,5S)-5-(4-aminopyrrolo[2,1-f][1,2,4]triazin-7-yl)-2-cyano-3-hydroxy-4-(isobutyryloxy)tetrahydrofuran-2-yl)methyl benzoate] |  | 15.9 µM
CC(=O)OC[C@@]1(C#N)O[C@@H](c2ccc3c(NC(=O)C(C)C)ncnn23)[C@H](O)[C@@H]1O [Compound 23, ((2R,3S,4R,5S)-2-cyano-3,4-dihydroxy-5-(4-isobutyramidopyrrolo[2,1-f][1,2,4]triazin-7-yl)tetrahydrofuran-2-yl)methyl acetate] |  | 49.8 µM
CC1(C(=O)OC[C@@]2(C#N)O[C@@H](c3ccc4c(N)ncnn34)[C@H](O)[C@@H]2O)CCC1 [Compound 24, ((2R,3S,4R,5S)-5-(4-aminopyrrolo[2,1-f][1,2,4]triazin-7-yl)-2-cyano-3,4-dihydroxytetrahydrofuran-2-yl)methyl 1-methylcyclobutane-1-carboxylate] |  | 6.34 µM
CC(C)(C)CC(=O)Nc1ncnn2c([C@@H]3O[C@](C#N)(COC(=O)CC(C)(C)C)[C@@H](O)[C@H]3O)ccc12 [Compound 26, ((2R,3S,4R,5S)-2-cyano-5-(4-(3,3-dimethylbutanamido)pyrrolo[2,1-f][1,2,4]triazin-7-yl)-3,4-dihydroxytetrahydrofuran-2-yl)methyl 3,3-dimethylbutanoate] |  | 50 µM
CCC(C)(C)CC(=O)OC[C@@]1(C#N)O[C@@H](c2ccc3c(N)ncnn23)[C@H](O)[C@@H]1O [Compound 27, ((2R,3S,4R,5S)-5-(4-aminopyrrolo[2,1-f][1,2,4]triazin-7-yl)-2-cyano-3,4-dihydroxytetrahydrofuran-2-yl)methyl 3,3-dimethylpentanoate] |  | 50 µM
CC(C)(CF)C(=O)OC[C@@]1(C#N)O[C@@H](c2ccc3c(N)ncnn23)[C@H](O)[C@@H]1O [Compound 29, ((2R,3S,4R,5S)-5-(4-aminopyrrolo[2,1-f][1,2,4]triazin-7-yl)-2-cyano-3,4-dihydroxytetrahydrofuran-2-yl)methyl 3-fluoro-2,2-dimethylpropanoate] |  | 16.9 µM
[H]/N=c1/c2ccc([C@@H]3O[C@](C#N)(CO)[C@@H](O)[C@H]3O)n2ncn1COC(=O)C(C)C [Compound 34, (7-((2S,3R,4S,5R)-5-cyano-3,4-dihydroxy-5-(hydroxymethyl)tetrahydrofuran-2-yl)-4-iminopyrrolo[2,1-f][1,2,4]triazin-3(4H)-yl)methyl isobutyrate] |  | 50 µM
CC[C@@H](C)C(=O)OC[C@@]1(C#N)O[C@@H](c2ccc3c(N)ncnn23)[C@H](O)[C@@H]1O [Compound 37, ((2R,3S,4R,5S)-5-(4-aminopyrrolo[2,1-f][1,2,4]triazin-7-yl)-2-cyano-3,4-dihydroxytetrahydrofuran-2-yl)methyl (R)-2-methylbutanoate] |  | 11.9 µM
